Species: Rattus norvegicus
Assay: Open TG-GATES - Regimen: Daily Repeat
Format: toxicity, organism-based, Sprague-Dawley
Design: regimen Daily Repeat, gender Male, age 6 weeks
Conditions: in vivo, po, 30 mg/kg, route gavage, dose level Middle; for APTT / Bas / Eos / Fbg / Hb / Ht / Lym / MCH / MCHC / MCV / Mono / Neu / PT / Plat / RBC / Ret / WBC: tissue Blood; for KIDNEY_L / KIDNEY_R / KIDNEY_TOTAL: tissue Kidney; for LIVER: tissue Liver; for A/G / ALP / ALT / AST / BUN / CRE / Ca / Cl / DBIL / GLC / IP / K / LDH / Na / PL / RALB / TBIL / TC / TG / TP / gamma-GTP: tissue Plasma

## O=C1CN(/N=C/c2ccc([N+](=O)[O-])o2)C(=O)N1 [NITROFURANTOIN]
72 h, time 3 day
  TERMINAL_BW: 243.4 g
  APTT: 18.9 s
  Bas: 0%
  Eos: 1%
  Fbg: 216.2 mg/dL
  Hb: 13.6 g/dL
  Ht: 38.5%
  Lym: 79.4%
  MCH: 22 pg
  MCHC: 35.3%
  MCV: 62.3 fL
  Mono: 3.2%
  Neu: 15.4%
  PT: 12.6 s
  Plat: 121.2 x10_4/uL
  RBC: 617.8 x10_4/ul
  Ret: 6.3%
  WBC: 106.9 x10_2/uL
  KIDNEY_L: 1 g
  KIDNEY_R: 1 g
  KIDNEY_TOTAL: 2.1 g
  LIVER: 11.6 g
  A/G: 1.6
  ALP: 1110 IU/L
  ALT: 35.4 IU/L
  AST: 67.2 IU/L
  BUN: 14.2 mg/dL
  CRE: 0.4 mg/dL
  Ca: 10.6 mg/dL
  Cl: 101.6 meq/L
  DBIL: 0.094 mg/dL
  GLC: 210.8 mg/dL
  IP: 7.6 mg/dL
  K: 3.8 meq/L
  LDH: 212 IU/L
  Na: 140.4 meq/L
  PL: 140.2 mg/dL
  RALB: 3.5 g/dL
  TBIL: 0.1 mg/dL
  TC: 70.6 mg/dL
  TG: 80.2 mg/dL
  TP: 5.6 g/dL
  gamma-GTP: 1 IU/L
[…], time 7 day
  TERMINAL_BW: 275.5 g
  APTT: 18.5 s
  Bas: 0%
  Eos: 1%
  Fbg: 223 mg/dL
  Hb: 13.5 g/dL
  Ht: 38%
  Lym: 81%
  MCH: 21.3 pg
  MCHC: 35.6%
  MCV: 60 fL
  Mono: 2.2%
  Neu: 15.4%
  PT: 12.6 s
  Plat: 125.8 x10_4/uL
  RBC: 634.2 x10_4/ul
  Ret: 5.3%
  WBC: 120.4 x10_2/uL
  KIDNEY_L: 1.1 g
  KIDNEY_R: 1.1 g
  KIDNEY_TOTAL: 2.2 g
  LIVER: 12.9 g
  A/G: 1.3
  ALP: 965 IU/L
  ALT: 30.6 IU/L
  AST: 57.6 IU/L
  BUN: 17.6 mg/dL
  CRE: 0.4 mg/dL
  Ca: 10.7 mg/dL
  Cl: 101.8 meq/L
  DBIL: 0.1 mg/dL
  GLC: 197.6 mg/dL
  IP: 7.1 mg/dL
  K: 4.2 meq/L
  LDH: 193 IU/L
  Na: 140.4 meq/L
  PL: 164 mg/dL
  RALB: 3.3 g/dL
  TBIL: 0.2 mg/dL
  TC: 80.6 mg/dL
  TG: 163.2 mg/dL
  TP: 5.8 g/dL
  gamma-GTP: 1.2 IU/L
[…], time 14 day
  TERMINAL_BW: 332 g
  APTT: 18.9 s
  Bas: 0%
  Eos: 0.8%
  Fbg: 224 mg/dL
  Hb: 14.4 g/dL
  Ht: 41.6%
  Lym: 79.4%
  MCH: 20.8 pg
  MCHC: 34.7%
  MCV: 60 fL
  Mono: 2.2%
  Neu: 16.8%
  PT: 12.4 s
  Plat: 120.1 x10_4/uL
  RBC: 693 x10_4/ul
  Ret: 4.7%
  WBC: 121.2 x10_2/uL
  KIDNEY_L: 1.4 g
  KIDNEY_R: 1.4 g
  KIDNEY_TOTAL: 2.7 g
  LIVER: 14.8 g
  A/G: 1.4
  ALP: 790.8 IU/L
  ALT: 33.2 IU/L
  AST: 58 IU/L
  BUN: 15.8 mg/dL
  CRE: 0.4 mg/dL
  Ca: 10.4 mg/dL
  Cl: 102.8 meq/L
  DBIL: 0.1 mg/dL
  GLC: 212.6 mg/dL
  IP: 7.1 mg/dL
  K: 3.7 meq/L
  LDH: 180.8 IU/L
  Na: 140.6 meq/L
  PL: 161.4 mg/dL
  RALB: 3.4 g/dL
  TBIL: 0.2 mg/dL
  TC: 78 mg/dL
  TG: 126.6 mg/dL
  TP: 5.9 g/dL
  gamma-GTP: 1.2 IU/L
[…], time 28 day
  TERMINAL_BW: 404.8 g
  APTT: 20.8 s
  Bas: 0%
  Eos: 1.2%
  Fbg: 215 mg/dL
  Hb: 15.3 g/dL
  Ht: 43.5%
  Lym: 80.8%
  MCH: 19.8 pg
  MCHC: 35.1%
  MCV: 56.5 fL
  Mono: 2.6%
  Neu: 14.2%
  PT: 12.7 s
  Plat: 118.4 x10_4/uL
  RBC: 770.8 x10_4/ul
  Ret: 2.9%
  WBC: 92.9 x10_2/uL
  KIDNEY_L: 1.5 g
  KIDNEY_R: 1.5 g
  KIDNEY_TOTAL: 3 g
  LIVER: 16.9 g
  A/G: 1.4
  ALP: 568.2 IU/L
  ALT: 31.6 IU/L
  AST: 54.4 IU/L
  BUN: 16.4 mg/dL
  CRE: 0.5 mg/dL
  Ca: 10.5 mg/dL
  Cl: 103.2 meq/L
  DBIL: 0.1 mg/dL
  GLC: 208 mg/dL
  IP: 6.3 mg/dL
  K: 3.5 meq/L
  LDH: 133.4 IU/L
  Na: 140.6 meq/L
  PL: 146 mg/dL
  RALB: 3.6 g/dL
  TBIL: 0.2 mg/dL
  TC: 66.4 mg/dL
  TG: 137.6 mg/dL
  TP: 6.1 g/dL
  gamma-GTP: 1.4 IU/L

From ChEMBL document CHEMBL3885861, “Open TG-GATES”
